Test results reported in patent US12024531B2, “Immunoproteasome inhibitors” (Principia Biopharma Inc., priority 2017, dated 2024).

Tests used:
[1] = biological target: immunoproteasome LMP7/B5i subunit (Homo sapiens, UniProt P28062); assay: Caliper-based proteasome enzymatic activity assay, LMP7; assay type: biochemical; conditions: human recombinant immunoproteasome 0.3 nM, FAM peptide substrate 1 μM, rt 3 h
[2] = biological target: constitutive proteasome β5c subunit (Homo sapiens, UniProt P28074); assay: Caliper-based proteasome enzymatic activity assay, β5c; assay type: biochemical; conditions: human recombinant constitutive proteasome 0.3 nM, FAM peptide substrate 1 μM, rt 3 h
[3] = biological target: immunoproteasome LMP2 subunit (Homo sapiens, UniProt P28065); assay: Caliper-based proteasome enzymatic activity assay, LMP2; assay type: biochemical; conditions: human recombinant immunoproteasome 0.3 nM, FAM peptide substrate 1 μM, rt 2 h
[4] = biological target: T1, PBMC LMP7 (Homo sapiens, UniProt P28062); assay: Inhibition of proteasome activity in cells (Proteasome-Glo), PBMC/LMP7; assay type: cell-based; conditions: 2 h incubation at 37° C.
Procedure: (§1) The cell-based effects of a compound described herein on the immunoproteasome were determined by measuring inhibition of proteasome activity in cells using the Proteasome-Glo™ Cell-Based Reagent (Promega, Madison WI). The Proteasome-Glo™ assay contains a specific luminogenic proteasome substrate in a buffer optimized for cell permeabilization, proteasome activity, and luciferase activity. For the chymotrypsin-like activity (LMP7 and 05c), the peptide substrate is Suc-LLVY-aminoluciferin (Succinyl-leucine-leucine-valine-tyrosine-aminoluciferin). Cleavage of the substrate by proteasome results in luminescent signal which is proportional to the proteasome activity. The cell line THP-1 (a monocytic leukemia cell line enriched in immunoproteasome), the cell line HT-29 (a colorectal adenocarcinoma cell line enriched in constitutive proteasome), and primary human peripheral blood mononuclear cells (PBMC) were used to assess proteasome activity. Cells were seeded in a 96-well plate at 10,000 cells per well in RPMI 1640 high glucose medium with 10% fetal bovine serum (FBS). Compound dilutions were added to cells starting at a concentration of 5 uM and decreasing in tripling dilutions. The final DMSO concentration was 1%. The concentration range was adjusted as needed for compounds of different potencies. The cells treated with compounds were incubated for 2 h at 37° C. in 5% CO2. At the end of the 2 hour incubation period, cells were transferred to white 384 well assay plates. 20 uL of Proteasome-Glo™ Reagent was added to each well and incubated for 10 minutes at rt. The plate was read in the Analyst HT instrument (Molecular Devices, Sunnyvale, CA) using luminescence mode. The percent inhibition of activity was plotted as a function of log compound concentration. The IC50 was then calculated for each compound using Prism software from GraphPad Software Inc. (San Diego, CA).

[5] = biological target: T2, HT29 β5c (Homo sapiens, UniProt P28074); assay: Inhibition of proteasome activity in cells (Proteasome-Glo), HT29/β5c; assay type: cell-based; conditions: HT-29 cells, 2 h incubation at 37° C.
Procedure: as §1, with “Compound dilutions were added to cells starting at a concentration of 5 uM and decreasing in tripling dilutions. The final DMSO concentration was 1%. The concentration range was adjusted as needed for compounds of different potencies. The cells treated with compounds were incubated for 2 h at 37° C. in 5% CO2. At the end of the 2 hour incubation period, cells were transferred to white 384 well assay plates. 20 uL of Proteasome-Glo™ Reagent was added to each well and incubated for 10 minutes at rt.” left out, “The percent inhibition of activity was plotted as a function of log compound concentration.” left out

[6] = biological target: T3, PBMC LMP2 (Homo sapiens, UniProt P28065); assay: Inhibition of proteasome activity in cells (Proteasome-Glo), PBMC/LMP2; assay type: cell-based; conditions: 2 h incubation at 37° C.
Procedure: as §1

[7] = biological target: T1, PBMC LMP7; assay: Durability of binding in cells (wash-out, Proteasome-Glo), PBMC LMP7; assay type: cell-based
Procedure: (§2) The durability of binding of proteasome inhibitors was assessed in cells using wash-out assays and the Proteasome-Glo™ Reagent kit. THP-1 cells, HT-29 cells, or PBMC were incubated with an 8-fold dilution series of inhibitor for 2 h. Following 2 h of incubation, cells were washed using 3 occasions of centrifugation followed by resuspension in culture medium. Following inhibitor washout, cells were returned to culture for either 30 minutes, 4 h, or 18 h. Cells were then transferred to white 384 plates, and 20 uL of Proteasome-Glo™ Reagent was added to each well for 10 minutes. Plates were then read on an Analyst HT plate reader using luminescence mode. The percent inhibition of activity was plotted as a function of log compound concentration. The IC50 was then calculated for each compound using Prism software from GraphPad.

[8] = biological target: T2, HT29 β5c; assay: Durability of binding in cells (wash-out, Proteasome-Glo), HT29 β5c; assay type: cell-based
Procedure: as §2

[9] = biological target: T3, PBMC LMP2; assay: Durability of binding in cells (wash-out, Proteasome-Glo), PBMC LMP2; assay type: cell-based
Procedure: as §2

[10] = system: multiple myeloma cell lines and primary patient tumor cells; conditions: cited from earlier work
[11] = system: Th1/17 differentiation; conditions: cited from earlier work
[12] = system: production of proinflammatory cytokines (IL-6, TNF-α, IL-23); conditions: cited from earlier work
[13] = system: murine collagen-induced arthritis; conditions: mouse, in vivo; cited from earlier work
[14] = system: MRL/lpr lupus model; conditions: cited from earlier work
[15] = system: murine DSS-induced colitis model; conditions: cited from earlier work
[16] = system: Hashimoto's thyroiditis model; conditions: mouse, in vivo; cited from earlier work
[17] = system: prostate PC-3 cell line; conditions: cited from earlier work
[18] = system: tumor growth; conditions: mouse; cited from earlier work

Row | Compound | IC50 [1] [nM] | IC50 [2] [nM] | IC50 [3] [nM] | IC50 [4] [nM] | IC50 [6] [nM] | further results
1 | CC(C)(C)NC(=O)C(C#N)=Cc1cccc(OCCC(=O)N[C@@H](Cc2ccccc2)B(O)O)c1 [Example 2, (R)-(1-(3-(3-(3-(tert-butylamino)-2-cyano-3-oxoprop-1-en-1-yl)phenoxy)propanamido)-2-phenylethyl)boronic Acid] | 3 | 66 | 160 | 5 | 3820 | IC50 [5]: 73 nM; IC50 ([7]; 30 min after inhibitor washout): 5 nM; IC50 ([7]; 4 hr after inhibitor washout): 10 nM; IC50 ([7]; 18 hr after inhibitor washout): 126 nM; IC50 ([8]; 30 min after inhibitor washout): 109 nM; IC50 ([8]; 4 hr after inhibitor washout): > 5000 nM; IC50 ([8]; 18 hr after inhibitor washout): > 5000 nM; IC50 ([9]; 4 hr after inhibitor washout): > 5000 nM; IC50 ([9]; 18 hr after inhibitor washout): > 5000 nM
2 | N#CC(=Cc1cccc(OCCC(=O)N[C@@H](Cc2ccccc2)B(O)O)c1)c1ccccn1 [Example 6, (R)-(1-(3-(3-(2-cyano-2-(pyridin-2-yl)vinyl)phenoxy)propanamido)-2-phenylethyl)boronic Acid] | 8 | 89 | 84 | 7 | > 5000 | –
3 | CC(C)(C)NC(=O)C(C#N)=Cc1cccc(OCCC(=O)N[C@@H](CCc2ccccc2)B(O)O)c1 [Example 11, (R)-1-(3-(3-(3-(tert-butylamino)-2-cyano-3-oxoprop-1-enyl)phenoxy)propanamido)-3-phenylpropylboronic Acid] | 2 | 310 | > 5000 | 3 | > 5000 | –
4 | CC(C)(C)NC(=O)C(C#N)=Cc1cccc(OCCC(=O)N[C@@H](Cc2coc3ccccc23)B(O)O)c1 [Example 14, (R)-(2-(benzofuran-3-yl)-1-(3-(3-(3-(tert-butylamino)-2-cyano-3-oxoprop-1-en-1-yl)phenoxy)propanamido)ethyl)boronic Acid] | 0.2 | 4 | 3240 | 2 | 510 | –
5 | CN(C)C(=O)C(C#N)=Cc1cccc(COC(=O)N[C@@H](Cc2ccccc2)B(O)O)c1 [Example 15, (R)-(1-((((3-(2-cyano-3-(dimethylamino)-3-oxoprop-1-en-1-yl)benzyl)oxy)carbonyl)amino)-2-phenylethyl)boronic Acid] | 8 | 3240 | 2920 | 18 | > 5000 | –
6 | CC1=C(C(=O)N[C@H](C)C(=O)N[C@@H](Cc2c[nH]c3ccccc23)C(=O)N[C@@H](Cc2ccccc2)C(=O)[C@@]2(C)CO2)Cc2ccccc21 [PR-924] | – | – | – | – | – | growth of multiple myeloma cell lines and primary patient tumor cells [10]: inhibit growth
7 | COc1ccc(C[C@H](NC(=O)[C@H](C)NC(=O)CN2CCOCC2)C(=O)N[C@@H](Cc2ccccc2)C(=O)[C@@]2(C)CO2)cc1 [PR-957] | – | – | – | – | – | human and mouse Th1/17 differentiation [11]: potently block; B cell effector functions and production of proinflammatory cytokines (IL-6, TNF-α, IL-23) [12]: potently block; disease activity in murine collagen-induced arthritis [13]: significantly inhibit disease activity; plasma cell numbers and anti-dsDNA IgG levels [14]: reduced plasma cell numbers and anti-dsDNA IgG levels; inflammation and tissue destruction [15]: reduced inflammation and tissue destruction; efficacy in autoantibody-driven Hashimoto's thyroiditis model [16]: efficacious
8 | CCCCCCC(=O)N[C@@H](C)C(=O)N[C@@H](CC(C)C)C(=O)[C@@]1(CO[Si](C)(C)C(C)(C)C)CO1 [UK-101] | – | – | – | – | – | apoptosis of prostate PC-3 cell line in vitro [17]: induced apoptosis; tumor growth in vivo [18]: significantly suppressed tumor growth

Continued, in another order:

Row | IC50 [1] [nM] | IC50 [2] [nM] | IC50 [3] [nM] | IC50 [4] [nM] | IC50 [6] [nM] | Compound | further results
9 | 8 | 1310 | > 5000 | 9 | > 5000 | CN(C)C(=O)C(C#N)=Cc1cccc(CCOC(=O)N[C@@H](Cc2ccccc2)B(O)O)c1 [Example 17, (R)-(1-(((3-(2-cyano-3-(dimethylamino)-3-oxoprop-1-en-1-yl)phenethoxy)carbonyl)amino)-2-phenylethyl)boronic Acid] | –
10 | 11 | 43 | 170 | 67 | > 5000 | CN1CCN(C(=O)C(C#N)=Cc2cccc(OCCC(=O)N[C@@H](Cc3ccccc3)B(O)O)c2)CC1 [Example 19, (R)-(1-(3-(3-(2-cyano-3-(4-methylpiperazin-1-yl)-3-oxoprop-1-en-1-yl)phenoxy)propanamido)-2-phenylethyl)boronic Acid] | –
11 | 3 | 32 | 120 | 34 | > 5000 | CNC(=O)C(C#N)=Cc1cccc(OCCC(=O)N[C@@H](Cc2ccccc2)B(O)O)c1 [Example 20, (R)-(1-(3-(3-(2-cyano-3-(methylamino)-3-oxoprop-1-en-1-yl)phenoxy)propanamido)-2-phenylethyl)boronic Acid] | –
12 | 1.7 | 255 | > 5000 | 12 | – | CCN(CC)C(=O)C(C#N)=Cc1cccc(CCOC(=O)N[C@@H](Cc2coc3ccccc23)B(O)O)c1 [Example 58, (R)-(2-(benzofuran-3-yl)-1-(((3-(2-cyano-3-(diethylamino)-3-oxoprop-1-en-1-yl)phenethoxy)carbonyl)amino)ethyl)boronic Acid] | –
13 | 1.1 | 167 | 1020 | 2 | – | N#CC(=Cc1cccc(CCOC(=O)N[C@@H](Cc2ccccc2)B(O)O)c1)c1ncccn1 [Example 60, (R)-(1-(((3-(2-cyano-2-(pyrimidin-2-yl)vinyl)phenethoxy)carbonyl)amino)-2-phenylethyl)boronic Acid] | –
14 | 0.4 | > 5000 | 2320 | 2 | – | N#CC(=Cc1cccc(CCOC(=O)N[C@@H](Cc2ccccc2)B(O)O)c1)C(=O)N1C2CCC1COC2 [Example 67, ((1R)-1-(((3-(3-(3-oxa-8-azabicyclo[3.2.1]octan-8-yl)-2-cyano-3-oxoprop-1-en-1-yl)phenethoxy)carbonyl)amino)-2-phenylethyl)boronic Acid] | –
15 | 0.6 | > 5000 | 4250 | 2 | – | CCN(C(=O)C(C#N)=Cc1cccc(CCOC(=O)N[C@@H](Cc2ccccc2)B(O)O)c1)C1CCOCC1 [Example 70, (R)-(1-(((3-(2-cyano-3-(ethyl(tetrahydro-2H-pyran-4-yl)amino)-3-oxoprop-1-en-1-yl)phenethoxy)carbonyl)amino)-2-phenylethyl)boronic Acid] | –
